Test results as given in PubChem BioAssay (NCI).
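At the GI50, growth is halved. Definition used: TGI = concentration required for complete inhibition of growth.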

How the values were obtained:
Experiment in all cases: inhibition of tumour cell growth, NCI panel, 384-well format
A498 renal = system: A498 renal
A549 NSCLC = system: A549 NSCLC
ACHN renal = system: ACHN renal
BT-549 breast = system: BT-549 breast
CAKI-1 renal = system: CAKI-1 renal
COLO 205 colon = system: COLO 205 colon
DU-145 prostate = system: DU-145 prostate
EKVX NSCLC = system: EKVX NSCLC
HCC-2998 colon = system: HCC-2998 colon
HCT-116 colon = system: HCT-116 colon
HCT-15 colon = system: HCT-15 colon
HL-60(TB) leukemia = system: HL-60(TB) leukemia
HOP-62 NSCLC = system: HOP-62 NSCLC
HOP-92 NSCLC = system: HOP-92 NSCLC
HS 578T breast = system: HS 578T breast
HT29 colon = system: HT29 colon
IGROV1 ovarian = system: IGROV1 ovarian
KM12 colon = system: KM12 colon
LOX IMVI melanoma = system: LOX IMVI melanoma
M14 melanoma = system: M14 melanoma
MALME-3M melanoma = system: MALME-3M melanoma
MCF7 breast = system: MCF7 breast
MDA-MB-231 breast = system: MDA-MB-231 breast
MDA-MB-435 melanoma = system: MDA-MB-435 melanoma
MDA-MB-468 breast = system: MDA-MB-468 breast
MOLT-4 leukemia = system: MOLT-4 leukemia
NCI-H226 lung = system: NCI-H226 lung
NCI-H23 lung = system: NCI-H23 lung
NCI-H322M lung = system: NCI-H322M lung
NCI-H460 NSCLC = system: NCI-H460 NSCLC
NCI-H522 lung = system: NCI-H522 lung
NCI/ADR-RES ovarian = system: NCI/ADR-RES ovarian
OVCAR-3 ovarian = system: OVCAR-3 ovarian
OVCAR-4 ovarian = system: OVCAR-4 ovarian
OVCAR-5 ovarian = system: OVCAR-5 ovarian
OVCAR-8 ovarian = system: OVCAR-8 ovarian
PC-3 prostate = system: PC-3 prostate
RPMI-8226 leukemia = system: RPMI-8226 leukemia
RXF 393 renal = system: RXF 393 renal
SF-268 CNS = system: SF-268 CNS
SF-295 CNS = system: SF-295 CNS
SF-539 CNS = system: SF-539 CNS
SK-MEL-28 melanoma = system: SK-MEL-28 melanoma
SK-MEL-5 melanoma = system: SK-MEL-5 melanoma
SK-OV-3 ovarian = system: SK-OV-3 ovarian
SN12C renal = system: SN12C renal
SNB-19 CNS = system: SNB-19 CNS
SNB-75 CNS = system: SNB-75 CNS
SR leukemia = system: SR leukemia
T-47D breast = system: T-47D breast
TK-10 renal = system: TK-10 renal
U251 glioblastoma = system: U251 glioblastoma
UACC-257 melanoma = system: UACC-257 melanoma
UACC-62 melanoma = system: UACC-62 melanoma

O=C(O)CCCCC(CCSCc1ccccc1)SCc1ccccc1 (stereo not drawn)
GI50 (A498 renal): 42.3 µM | TGI (A498 renal): > 100 µM | GI50 (A549 NSCLC): 44 µM | TGI (A549 NSCLC): > 100 µM | GI50 (ACHN renal): > 100 µM | TGI (ACHN renal): > 100 µM | GI50 (BT-549 breast): > 100 µM | TGI (BT-549 breast): > 100 µM | GI50 (CAKI-1 renal): > 100 µM | TGI (CAKI-1 renal): > 100 µM | GI50 (COLO 205 colon): > 100 µM | TGI (COLO 205 colon): > 100 µM | GI50 (DU-145 prostate): 64 µM | TGI (DU-145 prostate): > 100 µM | GI50 (EKVX NSCLC): 37.3 µM | TGI (EKVX NSCLC): > 100 µM | GI50 (HCC-2998 colon): 47.5 µM | TGI (HCC-2998 colon): > 100 µM | GI50 (HCT-116 colon): 47.5 µM | TGI (HCT-116 colon): > 100 µM | GI50 (HCT-15 colon): 45.1 µM | TGI (HCT-15 colon): > 100 µM | GI50 (HL-60(TB) leukemia): 58.8 µM | TGI (HL-60(TB) leukemia): > 100 µM | GI50 (HOP-62 NSCLC): 50.4 µM | TGI (HOP-62 NSCLC): > 100 µM | GI50 (HOP-92 NSCLC): > 100 µM | TGI (HOP-92 NSCLC): > 100 µM | GI50 (HS 578T breast): > 100 µM | TGI (HS 578T breast): > 100 µM | GI50 (HT29 colon): 53.7 µM | TGI (HT29 colon): > 100 µM | GI50 (IGROV1 ovarian): 68.3 µM | TGI (IGROV1 ovarian): > 100 µM | GI50 (KM12 colon): 45.4 µM | TGI (KM12 colon): > 100 µM | GI50 (LOX IMVI melanoma): > 100 µM | TGI (LOX IMVI melanoma): > 100 µM | GI50 (M14 melanoma): > 100 µM | TGI (M14 melanoma): > 100 µM | GI50 (MALME-3M melanoma): > 100 µM | TGI (MALME-3M melanoma): > 100 µM | GI50 (MCF7 breast): 66.9 µM | TGI (MCF7 breast): > 100 µM | GI50 (MDA-MB-231 breast): > 100 µM | TGI (MDA-MB-231 breast): > 100 µM | GI50 (MDA-MB-435 melanoma): > 100 µM | TGI (MDA-MB-435 melanoma): > 100 µM | GI50 (MDA-MB-468 breast): 39.7 µM | TGI (MDA-MB-468 breast): > 100 µM | GI50 (MOLT-4 leukemia): > 100 µM | TGI (MOLT-4 leukemia): > 100 µM | GI50 (NCI-H226 lung): 97.6 µM | TGI (NCI-H226 lung): > 100 µM | GI50 (NCI-H23 lung): 50.5 µM | TGI (NCI-H23 lung): > 100 µM | GI50 (NCI-H322M lung): 90.6 µM | TGI (NCI-H322M lung): > 100 µM | GI50 (NCI-H460 NSCLC): 34.2 µM | TGI (NCI-H460 NSCLC): > 100 µM | GI50 (NCI-H522 lung): 27.6 µM | TGI (NCI-H522 lung): 73.3 µM | GI50 (NCI/ADR-RES ovarian): > 100 µM | TGI (NCI/ADR-RES ovarian): > 100 µM | GI50 (OVCAR-3 ovarian): 45.2 µM | TGI (OVCAR-3 ovarian): > 100 µM | GI50 (OVCAR-4 ovarian): 59 µM | TGI (OVCAR-4 ovarian): > 100 µM | GI50 (OVCAR-5 ovarian): > 100 µM | TGI (OVCAR-5 ovarian): > 100 µM | GI50 (OVCAR-8 ovarian): > 100 µM | TGI (OVCAR-8 ovarian): > 100 µM | GI50 (PC-3 prostate): 59.6 µM | TGI (PC-3 prostate): > 100 µM | GI50 (RPMI-8226 leukemia): 33.7 µM | TGI (RPMI-8226 leukemia): 84.4 µM | GI50 (RXF 393 renal): > 100 µM | TGI (RXF 393 renal): > 100 µM | GI50 (SF-268 CNS): > 100 µM | TGI (SF-268 CNS): > 100 µM | GI50 (SF-295 CNS): 39.3 µM | TGI (SF-295 CNS): > 100 µM | GI50 (SF-539 CNS): > 100 µM | TGI (SF-539 CNS): > 100 µM | GI50 (SK-MEL-28 melanoma): > 100 µM | TGI (SK-MEL-28 melanoma): > 100 µM | GI50 (SK-MEL-5 melanoma): 33.4 µM | TGI (SK-MEL-5 melanoma): > 100 µM | GI50 (SK-OV-3 ovarian): > 100 µM | TGI (SK-OV-3 ovarian): > 100 µM | GI50 (SN12C renal): > 100 µM | TGI (SN12C renal): > 100 µM | GI50 (SNB-19 CNS): 94 µM | TGI (SNB-19 CNS): > 100 µM | GI50 (SNB-75 CNS): > 100 µM | TGI (SNB-75 CNS): > 100 µM | GI50 (SR leukemia): 22.6 µM | TGI (SR leukemia): 67.1 µM | GI50 (T-47D breast): 68.7 µM | TGI (T-47D breast): > 100 µM | GI50 (TK-10 renal): 50.2 µM | TGI (TK-10 renal): > 100 µM | GI50 (U251 glioblastoma): 45.3 µM | TGI (U251 glioblastoma): > 100 µM | GI50 (UACC-257 melanoma): 62.2 µM | TGI (UACC-257 melanoma): > 100 µM | GI50 (UACC-62 melanoma): 75.7 µM | TGI (UACC-62 melanoma): > 100 µM
